We go through one compound from patent US4831046A, “Tetrazole derivatives of 1,3-dioxane and thromboxane A2 antigonizing use thereof” (Imperial Chemical Industries PLC, priority 1985, dated 1989).

The subject of one experiment is rabbit aortal strip. The experiment can be described thus: rabbit aortal strip model (agonist TXA2 or U46619). It is filed as cell-based. To be noted: test (a), TXA2 antagonism. On the procedure:
(§1) As stated earlier, the compounds of formula I are antagonists of one or more of the actions of TXA2, for example certain of its actions on blood platelets, the vasculature and/or the lung.
(a) The rabbit aortal strip model devised by Piper and Vane (Nature, 1969, 223, 29-35) using as agonist a freshly prepared sample of TXA2, generated by addition of arachidonic acid (25 μg) to citrated, platelet rich rabbit plasma (250 μl) and allowing the mixture to aggregate fully over 90 seconds before use; alternatively the TXA2 mimetic agent known as U46619 (described by R L Jones et alia, in "Chemistry, Biochemistry and Pharmacological Activity of Prostanoids" edited by S M Roberts and F Scheinmann, at page 211, Pergamon Press, 1979) may be used as the agonist;

Experiment [1] concerns the target T1, human, citrated platelet-rich plasma (Homo sapiens, UniProt P21731).
T1 construct: aggregating human, citrated platelet-rich plasma by addition of the TXA2 mimetic agent U46619; endogenous in cells; host or cells: human platelets in citrated platelet-rich plasma
T1 sequence (P21731 1-343): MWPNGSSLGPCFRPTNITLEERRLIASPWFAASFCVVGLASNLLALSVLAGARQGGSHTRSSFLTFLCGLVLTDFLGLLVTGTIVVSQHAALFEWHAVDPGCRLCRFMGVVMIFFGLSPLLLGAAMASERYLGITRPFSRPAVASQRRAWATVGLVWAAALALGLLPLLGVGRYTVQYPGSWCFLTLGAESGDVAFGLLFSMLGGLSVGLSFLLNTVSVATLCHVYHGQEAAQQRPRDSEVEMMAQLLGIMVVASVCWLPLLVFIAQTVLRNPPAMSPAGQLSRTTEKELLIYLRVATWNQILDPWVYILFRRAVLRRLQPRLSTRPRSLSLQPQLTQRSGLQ
Nature of the experiment: blood platelet aggregation test (U46619, based on Born). The settings on record: test (b), averaged over several concentrations. It is filed as cell-based.
Source text: as §1
(b) a blood platelet aggregation test based on that described by Born (Nature, 1962, 194, 927-929) and involving:
(i) aggregating human, citrated platelet-rich plasma by addition of the TXA2 mimetic agent U46619 so that a dose-response curve is generated;
(ii) generating a dose-response curve for U46619 stimulated platelet aggregation in the presence of increasing amounts of test compound (generally in the range, 10^-5 M to 10^-10 M); and
(iii) calculating a KB value indicating potency of TXA2 antagonism for the test compound averaged over several concentrations, from the calculated 50% response value for U46619 aggregation in the presence and absence of test compound; and […]

The subject of experiment [2] is U46619 induced bronchoconstriction. Nature of the experiment: bronchoconstriction test, U46619 induced, Konzett-Rossler anaesthetised guinea-pig model. It is filed as in vivo. The settings on record: test (c), 50 μg/kg p.o., 50% response.
Source text: as §1
(c) a bronchoconstriction test involving measuring the inhibition by a test compound of the bronchoconstriction induced in the Konzett-Rossler, anaesthetised guinea-pig model (as modified by Collier and James, Brit. J. Pharmacol., 1967, 30, 283-307) by intravenous administration of the TXA2 mimetic agent, U46619 and involving:
(i) obtaining a cumulative dose-response curve to U46619 induced bronchoconstriction by intravenous administration of constant volumes of increasing concentrations of U46619 (0.2-4 μg/kg) in physiological saline solution and expressing bronchoconstriction as the maximum of that theoretically obtainable with no air flow to the test animal;
(ii) generating a cumulative dose-response curve to U46619 induced bronchoconstriction at 30 minute intervals for 3 hours after oral dosing of test compound; and
(iii) calculating a dose-ratio for the test compound (that is the ratio of concentration of U46619 required to cause 50% bronchoconstriction in the presence and absence of test compound) indicating the potency of TXA2 antagonism.

The pA2 is the negative logarithm of the molar antagonist concentration that doubles the agonist concentration needed for the same response.

In the experiment on rabbit aortal strip, `CC(C)[C@@H]1OC[C@H](C/C=C\CCc2nn[nH]n2)[C@H](c2ccccc2O)O1` (relative stereo) [Example 5, 5-[3(Z)-5-([2,4,5-cis]-4-o-hydroxyphenyl-2-isopropyl-1,3-dioxan-5-yl)pentenyl]-1(H)-tetrazole] yielded a pA2 of 7.32. In experiment [1], this compound gave a Kb of 45.6 nM. Moreover, in experiment [2], the dose ratio was determined as 25.
